The results in this text go back to patent EP4620955A1, “MC4R ANTAGONIST COMPOUND, PHARMACEUTICAL COMPOSITION AND PHARMACEUTICAL USE THEREOF” (Changchun Genescience Pharmaceutical Co., Ltd., priority 2022, dated 2024).

The term IC50 denotes the concentration that gives 50% inhibition. High values mean weaker potency in that assay, low ones greater potency in that assay.

Structures are written as SMILES.

T1 sequence (P32245 whole entry): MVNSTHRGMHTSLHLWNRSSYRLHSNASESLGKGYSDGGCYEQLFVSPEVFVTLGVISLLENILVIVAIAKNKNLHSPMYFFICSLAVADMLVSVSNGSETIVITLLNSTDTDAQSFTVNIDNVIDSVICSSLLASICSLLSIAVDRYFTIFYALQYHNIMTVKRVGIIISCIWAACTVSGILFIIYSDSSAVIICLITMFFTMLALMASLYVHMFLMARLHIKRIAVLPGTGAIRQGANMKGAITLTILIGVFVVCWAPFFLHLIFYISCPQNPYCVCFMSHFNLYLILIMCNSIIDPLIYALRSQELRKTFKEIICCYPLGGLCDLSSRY

The experiment addresses T1, MC4R (Homo sapiens, UniProt P32245).
T1 construct: expressed in transfected cells; host or cells: flipin-293-MC4 (Flp-In 293 host, hygromycin selection)
The experiment can be described thus: Assay of MC4R antagonist activity in cells in vitro (cAMP assay, Melanotan I stimulation). The experiment is classed as cell-based. Particulars: flipin-293-MC4 cell line, Melanotan I as agonist. As for the experimental part: Test Example 1: Assay of MC4R antagonist activity in cells in vitro
a. Experimental consumables:
b. Experimental steps • ✔ Cell line: flipin-293-MC4 • ✔ Cell culture medium: DMEM, 10% fetal bovine serum, 1 × PS, 200 µg/mL hygromycin • ✔ Experimental buffer: HBSS, 20 mM HEPES, 0.1% BSA, 500 µM IBMX • ✔ Positive compound: ML00253764 c. Antagonist detection • 1. Digested cells were suspended in the experimental buffer, and then inoculated into the 384-well cell culture plate. • 2. The to-be-detected compound was added to the cell plate, and incubated at 37°C for 10 min. • 3. Melanotan I was added to the cell plate, and incubated at 37°C for 30 min. • 4. Two detection reagents EU cAMP tracer and ulight anti camp were thawed and diluted with a lysis solution in the kit. • 5. The diluted detection reagents were added to the cell plate and incubated at room temperature for 1 h. • 6. Reading was carried out by Envision. (Excitation light: 340 nm, emission light: 615 nm and 665 nm) d. Data analysis • 1. %Inhibition calculation: %Inhibition = (Signalcmpd−SignalAve_VC)/(SignalAve_PC−SignalAve_VC) × 100. [formula] • Signalcmpd: compound signal value; • SignalAve_VC: negative control signal value; • SignalAve_PC: positive control signal value; • %inhibition: inhibition percentage. • 2. Calculation of IC50 of the compound using the nonlinear fitting equation in GraphPad: Y = Bottom + (Top−Bottom)/(1+10^(∧)((LogIC50−X)×HillSlope)) [formula] X: logarithmic value of the concentration of the compound; Y: inhibition percentage
Compound `COc1cc([C@@H](C)C(=O)N2C[C@@H](Nc3ccc(-c4cn5c(n4)C(F)(F)CC5)c(C)n3)C3(CC3)C2)c(Cl)cn1` [Compound 190, (R)-2-(5-chloro-2-methoxypyridine-4-yl)-1-((S)-7-((5-(7,7-difluoro-6,7-dihydro-5H-pyrrolo[1,2-a]imidazol-2-yl)-6-methylpyridine-2-yl)amino)-5-azaspiro[2.4]hept-5-yl)propan-1-one] had an IC50 of 1.1 nM.

The compound `COc1cc([C@@H](C)C(=O)N2CC[C@H](Nc3ccc(-c4nccc(C#N)n4)c(C)n3)C2)c(Cl)cn1` [Compound 113, 2-(6-(((S)-1-((R)-2-(5-chloro-2-methoxypyridine-4-yl)propionyl)pyrrolidine-3-yl)amino)-2-methylpyridine-3-yl)pyrimidine-4-nitrile] showed an IC50 of 0.9 nM.

`COc1cc([C@@H](C)C(=O)N2C[C@@H](Nc3ccc(-c4cc(C#N)ccn4)c(C)n3)C3(CC3)C2)c(Cl)cn1` [Compound 168, 6'-(((S)-5-((R)-2-(5-chloro-2-methoxypyridine-4-yl)propionyl)-5-azaspiro[2.4]hept-7-yl)amino)-2'-methyl-[2,3'-bipyridyl]-4-carbonitrile] came in with an IC50 of 3.68 nM.

Turning to `COc1cc([C@@H](C)C(=O)N2C[C@@H](C)[C@H](Nc3ccc(-c4ncccn4)c(C)n3)C2)c(Cl)cn1` [Compound 198, (R)-2-(5-chloro-2-methoxypyridine-4-yl)-1-((3R,4S)-3-methyl-4-((6-methyl-5-(pyrimidine-2-yl)pyridine-2-yl)amino)pyrrolidine-1-yl)propan-1-one], the IC50 came out at 4.9 nM.

`COc1cc([C@@H](C)C(=O)N2C[C@@H](Nc3ccc(-c4ncn(C)n4)c(C)n3)C3(CC3)C2)c(Cl)cn1` [Compound 142, (2R)-2-(5-chloro-2-methoxypyridine-4-yl)-1-[(7S)-7-{[6-methyl-5-(1-methyl-1H-1,2,4-triazole-3-yl)pyridine-2-yl]amino}-5-azaspiro[2.4]heptane-5-yl]propan-1-one] yielded a half-inhibitory concentration (IC50) of 3.29 nM.

As for `COc1cc([C@@H](C)C(=O)N2C[C@@H](Nc3ccc(-c4cnn(C)c4)c(C)n3)C3(CC3)C2)c(Cl)cn1` [Compound 144], the IC50 was 1.83 nM.

In the case of `COc1cc([C@@H](C)C(=O)N2C[C@@H](Nc3ccc(-c4nccc(C(F)F)n4)c(C)n3)C3(CC3)C2)c(F)cn1` [Compound 155, (R)-1-((S)-7-((5-(4-(difluoromethyl)pyrimidine-2-yl)-6-methylpyridine-2-yl)amino)-5-azaspiro[2.4]hept-5-yl)-2-(5-fluoro-2-methoxypyridine-4-yl)propan-1-one], the IC50 was 3.04 nM.

In turn, `COc1cc([C@@H](C)C(=O)N2CCC(Nc3ccc(-c4ncccn4)c(C)n3)C2)c(F)cn1` (stereo partly drawn) [Compound 001, (2R)-2-(5-fluoro-2-methoxypyridine-4-yl)-1-(3-((6-methyl-5-(pyrimidine-2-yl)pyridine-2-yl)amino)pyrrolidine-1-yl)propyl-1-one] registered an IC50 of 16.4 nM.

On to `COc1cc([C@@H](C)C(=O)N2C[C@@H](Nc3ccc(-c4cn(C)c(OC)n4)c(C)n3)C3(CC3)C2)c(Cl)cn1` [Compound 184, (R)-2-(5-chloro-2-methoxypyridine-4-yl)-1-((S)-7-((5-(2-methoxy-1-methyl-1H-imidazol-4-yl)-6-methylpyridine-2-yl)amino)-5-azaspiro[2.4]hept-5-yl)propan-1-one], for which the IC50 was 1.49 nM.

`COc1cc([C@@H](C)C(=O)N2C[C@@H](Nc3ccc(-c4cnn(C)c4)c(C)n3)C3(CC3)C2)c(F)cn1` [Compound 143, (2R)-2-(5-fluoro-2-methoxypyridine-4-yl)-1-((7S)-7-((6-methyl-5-(1-methyl-1H-pyrazol-4-yl)pyridine-2-yl)amino)-5-azaspiro[2.4]heptane-5-yl)propan-1-one] displayed an IC50 of 5.73 nM.

`COc1cc([C@@H](C)C(=O)N2C[C@@H](Nc3ccc4cc(OC)c(F)cc4n3)C3(CC3)C2)c(F)cn1` [Compound 117, (R)-2-(5-fluoro-2-methoxypyridine-4-yl)-1-((S)-7-((7-fluoro-6-methoxyquinoline-2-yl)amino)-5-azaspiro[2.4]heptane-5-yl)propan-1-one] registered an IC50 of 1.57 nM.
